Like-named read-outs stand apart in the source and are kept apart here.
Assays:
α-glucosidase = settings: read-out: IC50 against α-glucosidase, cited from earlier work
yeast α-glucosidase = yeast α-glucosidase (Saccharomyces cerevisiae, UniProt P53341); assay: biochemical; type: biochemical; settings: for α-glucosidase inhibitory activity, in words: SAR discussion; for IC50: read-out: IC50 (μM), in vitro α-glucosidase inhibitory activity
Text: On the other hand, there are phenyl, 4-methylphenyl, and or 4-methoxyphenyl groups in the benzenesulfonamide moiety.

α-amylase = biological target: T1, α-amylase (Homo sapiens, UniProt P04746); assay: In vitro α-amylase inhibition assay; type: biochemical; settings: at 300 μM
T1 sequence (P04746 16-511): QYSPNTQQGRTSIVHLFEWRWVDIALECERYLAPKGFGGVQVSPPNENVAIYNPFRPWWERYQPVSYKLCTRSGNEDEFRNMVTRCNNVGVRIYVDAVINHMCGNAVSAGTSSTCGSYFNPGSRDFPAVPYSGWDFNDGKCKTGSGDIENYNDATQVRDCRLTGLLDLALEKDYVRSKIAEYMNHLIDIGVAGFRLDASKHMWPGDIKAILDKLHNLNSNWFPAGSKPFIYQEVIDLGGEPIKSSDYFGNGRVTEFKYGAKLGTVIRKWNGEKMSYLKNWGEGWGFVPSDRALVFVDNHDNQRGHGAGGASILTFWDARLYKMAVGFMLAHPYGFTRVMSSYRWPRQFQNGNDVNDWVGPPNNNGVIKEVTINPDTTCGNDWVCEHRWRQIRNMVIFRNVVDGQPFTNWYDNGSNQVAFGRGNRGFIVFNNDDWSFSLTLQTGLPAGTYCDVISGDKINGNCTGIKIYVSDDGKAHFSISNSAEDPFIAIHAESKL

Sequence of yeast α-glucosidase (P53341 whole entry): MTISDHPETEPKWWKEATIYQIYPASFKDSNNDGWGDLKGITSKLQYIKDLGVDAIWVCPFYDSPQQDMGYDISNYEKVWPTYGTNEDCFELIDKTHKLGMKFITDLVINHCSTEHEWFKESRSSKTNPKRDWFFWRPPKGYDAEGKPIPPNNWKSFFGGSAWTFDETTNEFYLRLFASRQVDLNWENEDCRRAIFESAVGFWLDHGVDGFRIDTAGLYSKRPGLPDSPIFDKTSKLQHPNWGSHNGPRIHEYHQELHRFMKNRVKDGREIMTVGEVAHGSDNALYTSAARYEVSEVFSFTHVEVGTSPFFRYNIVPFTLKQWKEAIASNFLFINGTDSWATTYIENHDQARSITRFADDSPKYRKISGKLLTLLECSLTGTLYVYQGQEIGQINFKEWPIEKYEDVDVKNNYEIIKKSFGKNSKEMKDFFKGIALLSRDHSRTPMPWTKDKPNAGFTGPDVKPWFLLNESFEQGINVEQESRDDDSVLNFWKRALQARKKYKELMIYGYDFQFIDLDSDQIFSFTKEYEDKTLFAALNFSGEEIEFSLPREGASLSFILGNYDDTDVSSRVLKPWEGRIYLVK

| Compound | α-glucosidase inhibitory activity, in words (yeast α-glucosidase) | IC50 (yeast α-glucosidase) | melting point | further results |
| --- | --- | --- | --- | --- |
| NS(=O)(=O)c1ccc(N/N=C/c2coc3ccccc3c2=O)cc1 [D] |  |  |  | IC50 (α-glucosidase; Fig. 2, chromone-benzenesulfonamid D study): 20.1 µM |
| O=C1c2ccccc2C(=O)N1CCC(=NS(=O)(=O)c1ccccc1)N1CCC(Cc2ccccc2)CC1 [Compound 4i, N-(1-(4-benzylpiperidin-1-yl)-3-(1,3-dioxoisoindolin-2-yl)propylidene)benzenesulfonamide] | high inhibitory activity | 84.3 ± 0.4 µM |  |  |
| O=C1c2ccccc2C(=O)N1CCC(=NS(=O)(=O)c1ccccc1)N1CCCCC1 [Compound 4a, N-(3-(1,3-Dioxoisoindolin-2-yl)-1-(piperidin-1-yl)propylidene)benzenesulfonamide] | inactive |  | 158 to 160 °C |  |
| O=C1c2ccccc2C(=O)N1CCCOc1ccc(Cl)c(Cl)c1 [A] |  |  |  | IC50 (α-glucosidase; Fig. 2, phthalimide derivative A study): 7.55 µM |
| O=C1c2ccccc2C(=O)N1CCC(=NS(=O)(=O)c1ccccc1)N(c1ccccc1)c1ccccc1 [Compound 4g, 3-(1,3-Dioxoisoindolin-2-yl)-N,N-diphenyl-N'-(phenylsulfonyl)propanimidamide] | moderate inhibitory activity | 478 ± 0.07 µM | 202 to 204 °C |  |
| Cc1ccc(S(=O)(=O)N=C(CCN2C(=O)c3ccccc3C2=O)N2CCOCC2)cc1 [Compound 4e, N-(3-(1,3-Dioxoisoindolin-2-yl)-1-morpholinopropylidene)-4-methylbenzenesulfonamide] | high inhibitory activity | 117 ± 0.14 µM | 204 to 206 °C | inhibition effect against α-amylase (α-amylase): no inhibition effect |
| Cc1ccc(S(=O)(=O)Nc2ccc3c(c2)C(=O)N(CCOc2ccc(O)cc2)C3=O)cc1 [B] |  |  |  | IC50 (α-glucosidase; Fig. 2, phthalimide-benzenesulfonamid B study): 25.5 µM |
| Cc1ccc(S(=O)(=O)N=C(CCN2C(=O)c3ccccc3C2=O)N2CCCCC2)cc1 [Compound 4b, N-(3-(1,3-Dioxoisoindolin-2-yl)-1-(piperidin-1-yl)propylidene)-4-methylbenzenesulfonamide] | high inhibitory activity | 127.24 ± 0.1 µM | 198 to 200 °C |  |
| COc1ccc(S(=O)(=O)N=C(CCN2C(=O)c3ccccc3C2=O)N2CCOCC2)cc1 [Compound 4f, N-(3-(1,3-Dioxoisoindolin-2-yl)-1-morpholinopropylidene)-4-methoxybenzenesulfonamide] |  |  | 172 to 174 °C |  |
| COc1ccc(S(=O)(=O)N=C(CCN2C(=O)c3ccccc3C2=O)N2CCCCC2)cc1 [Compound 4c, N-(3-(1,3-dioxoisoindolin-2-yl)-1-(piperidin-1-yl)propylidene)-4-methoxybenzenesulfonamide] | good anti-α-glucosidase activity | 200.29 ± 0.1 µM | 146 to 148 °C |  |
| O=C1c2ccccc2C(=O)N1CCC(=NS(=O)(=O)c1ccccc1)N1CCOCC1 [Compound 4d, N-(3-(1,3-dioxoisoindolin-2-yl)-1-morpholinopropylidene)benzenesulfonamide] | inactive |  | 168 to 170 °C |  |
| Cc1ccc(S(=O)(=O)N=C(CCN2C(=O)c3ccccc3C2=O)N(c2ccccc2)c2ccccc2)cc1 [Compound 4h, 3-(1–3-Dioxoisoindolin-2-yl)-N,N-diphenyl-N’-tosylpropanimidamide] | moderate α-glucosidase inhibitors | 497 ± 0.25 µM | 202 to 204 °C |  |
| O=C1c2ccccc2C(=O)N1CCC(=NS(=O)(=O)c1ccccc1)N1CCN(c2ccccc2)CC1 [Compound 4l, N-(3-(1,3-dioxoisoindolin-2-yl)-1-(4-phenylpiperazin-1-yl)propylidene)benzenesulfonamide] |  |  | 160 to 164 °C |  |
| O=C(N/N=C/c1ccc(OCCCN2C(=O)c3ccccc3C2=O)cc1)c1cc2ccccc2oc1=O [E] |  |  |  | IC50 (α-glucosidase; Fig. 2, phthalimide-coumarin E study): 85.2 µM |
| COc1ccc(S(=O)(=O)N=C(CCN2C(=O)c3ccccc3C2=O)N2CCC(Cc3ccccc3)CC2)cc1 [Compound 4k] | inactive |  |  |  |

Source: PMC9217978, “Design, synthesis, in vitro α-glucosidase inhibition, docking, and molecular dynamics of new phthalimide-benzenesulfonamide hybrids for targeting type 2 diabetes” (Scientific Reports, 2022)
